Experimental data reported in patent publication US20070243217A1, “Film-Shaped Medicament for Oral Administration Containing Estriol” (HF Arzneimittelforschung GmbH, priority 2004, published 2007).

Key:
[1] = Estriol levels in the blood over time with the same treatment and dose; format: in vivo; conditions: vaginal application
Method: Thus, even in the case of long-term use, there should be no unwanted absorption conditions at the oral mucosa as the application site that show a change for the worse, provided that the treatment of the climacteric complaints is carried out using a film-shaped medicament according to the invention.

[2] = Changes of the oral mucosa on buccal or sublingual administration of estriol; format: in vivo

## C[C@]12CC[C@@H]3c4ccc(O)cc4CC[C@H]3[C@@H]1C[C@@H](O)[C@@H]2O [estriol, (16α, 17β)-estra-1,3,5(10)-triene-3,16,17-triol]
[1]
  estriol levels in the blood after some time: drop measurably after some time
[2]
  changes of the oral mucosa analogous to proliferation and hornification of the upper cell layers in the vagina: no changes of the oral mucosa
